The text below walks through data of article PMC6539903 (Molecules, 2019).

The test system of data set [1] is SW620 xenografts tumor model. Briefly: SW620 xenograft model in vivo. The following applies: nude mice, 20 mg/kg intraperitoneal every 2 days, start about 100 mm^3. As for the experimental part:
In view of potent cox-2 selective inhibitory activity and anti-colon cancer proliferation activity in vitro, compound 4b was further evaluated for anti-colon cancer activity in vivo. SW620 cells (5 × 10^6) were subcutaneously injected into the rightwing nude mice to establish a xenograft model. […]. Intraperitoneal administration was performed every 2 days and tumor volume changes were recorded for 12 consecutive days. […]. After 12 days of treatment, the tumor volumes of the two treatment groups were 43.71 mm^3 and 51.69 mm^3, respectively. Finally, the tumors of each group were removed and weighed to calculate the ratio of tumor weight to body weight. […] In contrast, body weight increased slightly in the vehicle group at the later stage of treatment (Figure 5C). […] This series of representative compounds 4b, as a selective COX-2 inhibitor for the targeted therapy of colon cancer, had prominent research prospect.
Nude mice aged 6-8 weeks were purchased from the model animal research center of nanjing university and bred in a specific non-pathogenic environment. A xenograft model was established by subcutaneous injection of SW620 cells […] DMEM into the right wing (18–22 g) of nude mice. […]. Vehicle treatment groups were treated with polyethylene glycol (containing 1% DMSO). […] After administration, weighed every two days and measured tumor volume with a vernier caliper. […]

A further data set relates to HeLa. Briefly: MTT antiproliferation assay, HeLa. The following applies: Homo sapiens, 48 h, n = 3, read-out: IC50 ± SD HeLa. The class given is cell-based. As for the experimental part: (§1) MCF-7 (human breast cell line), HeLa (human cervical cell line), A549 (human lung cell line), HepG2 (human liver cell line), SW620 (human colorectal cell line) and a non-cancer cell line, NCM460 (Human colonic epithelial cells) were preserved at the State Key Laboratory of Pharmaceutical Biotechnology, Nanjing University (Nanjing, China).
(§2) The antiproliferative activity of the synthetic compounds against the SW620, MCF-7, HeLa, A549, HepG2, and NUM460 cell lines was evaluated by a colorimetric assay based on a modified standard (MTT). […] Thereafter, MTT (5 mg/mL in PBS) was added to each well and incubated for 4 h. 150 μL of DMSO was added to each well and shaken with a shaker. The absorbance (OD 570 nm) was read at 630 nm on an ELISA reader (ELx800, BioTek, montpelier, VT, USA). IC50 values for the compounds were calculated by comparison to DMSO treated control wells. Three replicate wells were used for each drug concentration. Each assay was performed three times.

A short description of data set [2]: MTT cytotoxicity assay, non-cancer colon cells. The class given is cell-based. The following applies: human, NCM460 colonic epithelial cells (non-cancer cell line), n = 3, non-cancer cell line, read-out: CC50 ± SD NUM460. As for the experimental part: Besides, the MTT assay was performed on a non-cancer line NCM460 to assess the cytotoxicity of the test compound to normal colon cells.
as §1, §2
(Formazan colour is commonly taken as a measure of viable cells.)

The subject of data set [3] is SW620 cells. Briefly: Cell apoptosis assay (Annexin V-FITC/PI flow cytometry). The following applies: 24 h (0 μM: 7.9%). The class given is cell-based, human. As for the experimental part:
To confirm that antiproliferation activities of SW620 were associated with apoptosis, SW620 cell apoptosis induced by compound 4b was determined using flow cytometry with Annexin V-FITC/PI Apoptosis Detection Kit. […] The percentages of cell apoptosis 7.9%, 19.9%, 45.9%, and 65.0% were responding to the concentration of compound 4b 0 μM, 2.0 μM, 4.0 μM, and 8.0 μM, respectively.
SW620 cells were seeded in the 6-well plate ([…]) and treated with compound 4b to induce apoptosis at final concentrations of 0, 2, 4, and 8 μM for 24 h. After incubation, the cells were extracted with trypsin and washed with cold PBS twice. Cells are then bound to 500 μL buffer and then annexin-v/FITC (5 μL) and PI (5 μL) were added to the medium for another 10 min to incubate darkness. Staining cells were analyzed by flow cytometry (Becton Dickinson, Franklin, NJ, USA). Flowjo 7.6.1 software (Emerald Biotech Co. Ltd., Hangzhou, China) was used for statistical analysis.
For orientation: In flow cytometry, cells or beads pass a laser one at a time.

The subject of another data set is HepG2. Briefly: MTT antiproliferation assay, HepG2. In kind it is cell-based. The following applies: Homo sapiens, 48 h, n = 3, read-out: IC50 ± SD HepG2. As for the experimental part:
as §1, §2

Data set [4] deals with SW620 cells. Briefly: MTT antiproliferation assay, SW620. The class given is cell-based. The following applies: Homo sapiens, SW-620, 48 h, n = 3, read-out: IC50 ± SD SW620. The procedure:
as §1, §2

The next data set addresses T1, COX-1 (Homo sapiens, UniProt P23219).
T1 construct: purchased Cayman Chemical 701170
In words: COX-1 inhibition assay (COX-1 ELISA kit). The class given is biochemical. The following applies: mean of four determinations; read-out: IC50 ± SD COX-1. As for the experimental part: (§3) 3-(4,5-Dimethylthiazol-2-yl)-2,5-diphenyltetrazolium (MTT) were purchased from Beyotime Institute of Biotechnology (Haimen, China). Annexcin V-FITC cell apoptosis assay kit (catalog No.BA11100) was purchased from BIO-BOX (Nanjing, China). Fibronectin (#F1056) and laminin (#L2020) were purchased from Sigma-Aldrich (St. Louis, MO, USA).
(§4) Then 1 M HCl was added to the reaction mixture to stop the reaction, and one-tenth of the volume of saturated stannous chloride (50 mg/mL) was added. The reaction mixture was incubated at room temperature for 5 min, and PGF2 and PGH2 were produced.
(In general: An ELISA detects its analyte on a solid surface through an enzyme-linked reagent.)

Another data set deals with T2, COX-2 (Homo sapiens, UniProt P35354).
T2 construct: purchased Cayman Chemical 701180
T2 sequence (P35354 18-604): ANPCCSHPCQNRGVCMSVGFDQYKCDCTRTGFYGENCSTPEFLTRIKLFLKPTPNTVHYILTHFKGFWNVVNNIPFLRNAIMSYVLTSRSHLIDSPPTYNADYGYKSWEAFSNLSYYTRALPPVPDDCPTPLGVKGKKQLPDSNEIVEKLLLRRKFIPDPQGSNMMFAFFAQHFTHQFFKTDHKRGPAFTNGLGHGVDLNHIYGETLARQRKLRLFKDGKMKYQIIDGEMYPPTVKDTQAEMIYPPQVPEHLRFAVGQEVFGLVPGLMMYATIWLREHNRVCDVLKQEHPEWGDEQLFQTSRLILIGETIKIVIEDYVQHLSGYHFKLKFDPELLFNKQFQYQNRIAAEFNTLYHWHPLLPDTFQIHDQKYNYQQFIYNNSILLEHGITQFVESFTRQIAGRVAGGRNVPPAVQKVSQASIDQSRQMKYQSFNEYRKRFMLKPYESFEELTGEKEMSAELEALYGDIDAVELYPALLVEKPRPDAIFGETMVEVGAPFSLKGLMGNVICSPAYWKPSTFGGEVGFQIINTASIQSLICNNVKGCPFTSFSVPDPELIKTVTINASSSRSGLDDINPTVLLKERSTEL
Briefly: COX-2 inhibition assay (COX-2 ELISA kit). In kind it is biochemical. The note with it: for Selectivity Index (SI) (COX-1 IC50/COX-2 IC50): in vitro COX-2 selectivity index; for IC50: mean of four determinations, read-out: IC50 ± SD COX-2. As for the experimental part: as §3, §4

A further data set relates to A549. In words: MTT antiproliferation assay, A549. The following applies: Homo sapiens, 48 h, n = 3, read-out: IC50 ± SD A549. In kind it is cell-based. As for the experimental part:
as §1, §2

In another data set the test system is MCF-7. Briefly: MTT antiproliferation assay, MCF-7. In kind it is cell-based. The following applies: Homo sapiens, MCF7, 48 h, n = 3, read-out: IC50 ± SD MCF-7. As for the experimental part:
as §1, §2

T1 sequence (P23219 24-599): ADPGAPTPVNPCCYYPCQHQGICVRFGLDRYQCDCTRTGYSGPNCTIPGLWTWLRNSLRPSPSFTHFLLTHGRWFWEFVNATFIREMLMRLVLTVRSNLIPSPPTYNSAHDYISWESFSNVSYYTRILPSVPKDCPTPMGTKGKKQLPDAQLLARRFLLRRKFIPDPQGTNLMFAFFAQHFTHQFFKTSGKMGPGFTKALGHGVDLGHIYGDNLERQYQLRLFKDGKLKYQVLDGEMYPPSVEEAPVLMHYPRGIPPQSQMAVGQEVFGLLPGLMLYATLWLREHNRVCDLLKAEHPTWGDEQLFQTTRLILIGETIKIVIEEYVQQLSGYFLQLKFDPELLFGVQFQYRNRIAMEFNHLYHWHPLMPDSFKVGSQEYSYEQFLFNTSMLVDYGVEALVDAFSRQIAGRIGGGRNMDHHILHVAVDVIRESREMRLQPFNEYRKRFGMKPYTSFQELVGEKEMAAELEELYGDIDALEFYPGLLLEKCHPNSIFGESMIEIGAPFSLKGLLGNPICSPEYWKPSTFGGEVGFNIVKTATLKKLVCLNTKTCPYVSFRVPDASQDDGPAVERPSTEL

As to `Cc1ccc(-c2cc(C(F)(F)F)nn2-c2ccc(S(N)(=O)=O)cc2)cc1` [Celecoxib, reference compound], in data set [1], the “tumor volume after 12 days of treatment” value is recorded as 51.69 mm^3.

On to `Cc1ccc(C2=NN(c3ccc(S(N)(=O)=O)cc3)C(c3ccc4c(c3)OCO4)C2)cc1` (stereo not shown) [Compound 4b, 4-(5-(Benzo[d][1,3]dioxol-5-yl)-3-(p-tolyl)-4,5-dihydro-1H-pyrazol-1-yl)benzenesulfonamide], for which the melting point (usually the temperature, or range, at which the solid turns liquid) lay in the range of 200 to 201 °C. The IC50 (usually the point on the concentration scale where inhibition reaches its midpoint) in the data set on HeLa stood at 2.98 ± 0.17 µM. Further, the CC50 (commonly the concentration at which the toxic effect on the cells reaches its halfway point) at 48 h in data set [2] stood at 134 ± 7.85 µM. Moreover, in the data set with SW620 cells [3] (SW620, 2.0 μM), the “percentage of cell apoptosis” value was found to be 19.9%. In addition, in the data set with SW620 cells [3] (SW620, 4.0 μM), the “percentage of cell apoptosis” value is reported as 45.9%. Further, the “percentage of cell apoptosis” value in the data set with SW620 cells [3] (SW620, 8.0 μM) came out at 65.0%. Besides, the half-inhibitory concentration (IC50) in the data set with HepG2 was found to be 2.96 ± 0.14 µM. Further, the IC50 with SW620 cells [4] was determined as 0.86 ± 0.02 µM. In addition, the IC50 at COX-1 worked out at 48.06 ± 0.35 µM. For the same molecule, the “tumor volume after 12 days of treatment” value in data set [1] is 43.71 mm^3. Further, at COX-2, the “Selectivity Index (SI) (COX-1 IC50/COX-2 IC50)” value is given as 137.3 and the IC50 is 350 ± 20 nM. Further, the IC50 in the data set on A549 is 1.94 ± 0.06 µM. Besides, in the data set with MCF-7, the 50% inhibitory concentration (IC50) is 2.99 ± 0.13 µM.

`NS(=O)(=O)c1ccc(N2N=C(c3cccc(F)c3)CC2c2ccc3c(c2)OCCO3)cc1` (stereo not shown) [Compound 4v, 4-(5-(2,3-Dihydrobenzo[b][1,4]dioxin-6-yl)-3-(3-fluorophenyl)-4,5-dihydro-1H-pyrazol-1-yl)benzenesulfonamide] returned a melting point of 200 to 201 °C. The 50% inhibitory concentration (IC50) in the data set on HeLa came to 8.95 ± 0.39 µM. For the same molecule, in data set [2], the CC50 at 48 h worked out at 150 ± 6.94 µM. Also, the half-maximal inhibitory concentration (IC50) with HepG2 was 12.9 ± 0.99 µM. Moreover, in the data set on SW620 cells [4], the half-maximal inhibitory concentration (IC50) amounted to 4.84 ± 0.27 µM. In addition, the IC50 at COX-1 is greater than 60 µM. Moreover, at COX-2, the “Selectivity Index (SI) (COX-1 IC50/COX-2 IC50)” value was greater than 31.09 and the IC50 is 1930 ± 80 nM. Further, the half-maximal inhibitory concentration (IC50) with A549 came out at 6.47 ± 0.29 µM. Further, in the data set with MCF-7, the half-maximal inhibitory concentration (IC50) turned out to be 7.96 ± 0.55 µM.

`NS(=O)(=O)c1ccc(N2N=C(c3cc(F)cc(F)c3)CC2c2ccc3c(c2)OCCO3)cc1` (stereo not shown) [Compound 4w, 4-(3-(3,5-Difluorophenyl)-5-(2,3-dihydrobenzo[b][1,4]dioxin-6-yl)-4,5-dihydro-1H-pyrazol-1-yl)benzenesulfonamide] yielded a melting point of 182 to 183 °C. Further, the 50% inhibitory concentration (IC50) in the data set on HeLa stood at 7.04 ± 0.47 µM. The CC50 at 48 h in [2] stood at 105 ± 8.87 µM. In addition, the half-inhibitory concentration (IC50) with HepG2 stood at 9.08 ± 0.71 µM. Further, the 50% inhibitory concentration (IC50) in the data set on SW620 cells [4] was determined as 3.78 ± 0.22 µM. In addition, the IC50 on COX-1 stood at 55.02 ± 0.36 µM. Moreover, at COX-2, the “Selectivity Index (SI) (COX-1 IC50/COX-2 IC50)” value is given as 36.44 and the IC50 was 1510 ± 90 nM. Moreover, in the data set on A549, the IC50 amounted to 4.34 ± 0.28 µM. Moreover, the 50% inhibitory concentration (IC50) in the data set with MCF-7 is 6.37 ± 0.39 µM.

The molecule `NS(=O)(=O)c1ccc(N2N=C(c3ccccc3F)CC2c2ccc3c(c2)OCCO3)cc1` (stereo not shown) [Compound 4y, 4-(5-(2,3-Dihydrobenzo[b][1,4]dioxin-6-yl)-3-(2-fluorophenyl)-4,5-dihydro-1H-pyrazol-1-yl)benzenesulfonamide] yielded a melting point of 191 to 192 °C. The IC50 in the data set with HeLa was determined as 10.2 ± 0.72 µM. The cytotoxic concentration (CC50) at 48 h in data set [2] came out at 178 ± 12.7 µM. The 50% inhibitory concentration (IC50) in the data set with HepG2 worked out at 15.4 ± 0.84 µM. For the same molecule, the IC50 with SW620 cells [4] was determined as 5.51 ± 0.37 µM. In addition, the IC50 on COX-1 is greater than 60 µM. Further, at COX-2, the “Selectivity Index (SI) (COX-1 IC50/COX-2 IC50)” value is given as greater than 27.40 and the IC50 was 2190 ± 210 nM. In the data set on A549, the half-inhibitory concentration (IC50) came to 7.83 ± 0.58 µM. Further, in the data set on MCF-7, the IC50 worked out at 8.96 ± 0.74 µM.

As to `NS(=O)(=O)c1ccc(N2N=C(c3ccc(F)cc3F)CC2c2ccc3c(c2)OCCO3)cc1` (stereo not shown) [Compound 4z, 4-(3-(2,4-Difluorophenyl)-5-(2,3-dihydrobenzo[b][1,4]dioxin-6-yl)-4,5-dihydro-1H-pyrazol-1-yl)benzenesulfonamide], the melting point lay in the range of 168 to 169 °C. In addition, in the data set on HeLa, the IC50 was 8.34 ± 0.69 µM. Moreover, the CC50 at 48 h in data set [2] came out at 135 ± 9.63 µM. For the same molecule, the IC50 in the data set with HepG2 is 11.7 ± 0.86 µM. Further, in the data set on SW620 cells [4], the IC50 is 4.48 ± 0.24 µM. Also, the IC50 on COX-1 is greater than 60 µM. At COX-2, the “Selectivity Index (SI) (COX-1 IC50/COX-2 IC50)” value was greater than 33.52 and the IC50 was found to be 1790 ± 130 nM. Also, in the data set with A549, the IC50 worked out at 5.78 ± 0.16 µM. Further, the IC50 in the data set on MCF-7 was 7.42 ± 0.63 µM.
